These results are taken from PMC5025730.

Data set [1] can be described thus: CuAAC macrocyclisation (azide + terminal alkyne to 1,4-triazole); CuI 2 eq, DIPEA 3 eq. The conditions noted are these: THF, 1.0 mM, 66.0 °C.
The nature of data set [2]: RuAAC macrocyclisation (azide + terminal alkyne to 1,5-triazole); [Cp*RuCl]4 0.1 eq (more for 30b, 31b). As to conditions: the molecule shown is the open-chain precursor, THF, 1.0 mM, 66.0 °C.
Data set [3] can be described thus: CuAAC macrocyclisation (azide + terminal alkyne to 1,4-triazole); CuI 2 eq, DIPEA 3 eq; yield includes preceding coupling step on crude precursor. The conditions noted are these: the molecule shown is the open-chain precursor, THF, 1.0 mM, 66.0 °C, 2 steps.
Data set [4] can be described thus: RuAAC macrocyclisation (azide + terminal alkyne to 1,5-triazole); [Cp*RuCl]4 0.1 eq (0.2 eq for 28b); yield includes preceding coupling step on crude precursor. The conditions noted are these: the molecule shown is the open-chain precursor, THF, 1.0 mM, 66.0 °C, 2 steps.

Turning to `CN(C)C(=O)[C@@H]1CCCCn2cc(nn2)CN(CC(=O)OCCC(F)(F)C(F)(F)C(F)(F)C(F)(F)C(F)(F)C(F)(F)C(F)(F)C(F)(F)F)C(=O)c2cccc(c2)NC(=O)N1` [6 -> 24a], the ring closure, isolated yield in data set [1] (from C#CCN(CC(=O)OCCC(F)(F)C(F)(F)C(F)(F)C(F)(F)C(F)(F)C(F)(F)C(F)(F)C(F)(F)F)C(=O)c1cccc(NC(=O)N[C@@H](CCCCN=[N+]=[N-])C(=O)N(C)C)c1, 17-membered ring) worked out at 70%.

Consider `C#CCN(CC(=O)OCCC(F)(F)C(F)(F)C(F)(F)C(F)(F)C(F)(F)C(F)(F)C(F)(F)C(F)(F)F)C(=O)c1cccc(NC(=O)N[C@@H](CCCCN=[N+]=[N-])C(=O)N(C)C)c1` [6 -> 24b], for which the ring closure, isolated yield in data set [2] (16-membered ring, 6.0 h) came to 33%.

For the molecule `O=C1CCc2cccc(c2)NC(=O)NCCc2ccc(cc2)-n2cc(nn2)CN(CC(=O)OCCC(F)(F)C(F)(F)C(F)(F)C(F)(F)C(F)(F)C(F)(F)C(F)(F)C(F)(F)F)C(=O)c2cccc(c2)N1` [13 -> 26a], the ring closure, isolated yield in data set [1] (from C#CCN(CC(=O)OCCC(F)(F)C(F)(F)C(F)(F)C(F)(F)C(F)(F)C(F)(F)C(F)(F)C(F)(F)F)C(=O)c1cccc(NC(=O)CCc2cccc(NC(=O)NCCc3ccc(N=[N+]=[N-])cc3)c2)c1, 25-membered ring, 36.0 h) worked out at 60%.

In the case of `C#CCN(CC(=O)OCCC(F)(F)C(F)(F)C(F)(F)C(F)(F)C(F)(F)C(F)(F)C(F)(F)C(F)(F)F)C(=O)c1cccc(NC(=O)CCc2cccc(NC(=O)NCCc3ccc(N=[N+]=[N-])cc3)c2)c1` [13 -> 26b], the ring closure, isolated yield in data set [2] (24-membered ring, 5.0 h) turned out to be 54%.

Consider `C#CCN(CC(=O)OCCC(F)(F)C(F)(F)C(F)(F)C(F)(F)C(F)(F)C(F)(F)C(F)(F)C(F)(F)F)C(=O)c1cccc(NC(=O)CCc2cccc(NC(=O)NCCc3ccc(NC(=O)N[C@@H](CCCCN=[N+]=[N-])C(=O)N(C)C)cc3)c2)c1` [14 -> 27a (over two steps from 13)], for which the ring closure, yield over several steps in data set [3] (33-membered ring, 24.0 h) is 31%.

In the case of `C#CCN(CC(=O)OCCC(F)(F)C(F)(F)C(F)(F)C(F)(F)C(F)(F)C(F)(F)C(F)(F)C(F)(F)F)C(=O)c1cccc(NC(=O)CCc2cccc(NC(=O)NCCc3ccc(NC(=O)N[C@@H](CCCCN=[N+]=[N-])C(=O)N(C)C)cc3)c2)c1` [14 -> 27b (over two steps from 13)], in data set [4] (32-membered ring, 24.0 h), the ring closure, yield over several steps worked out at 12%.

On to `C#CCN(CC(=O)OCCC(F)(F)C(F)(F)C(F)(F)C(F)(F)C(F)(F)C(F)(F)C(F)(F)C(F)(F)F)C(=O)c1cccc(N(C(=O)CCCCCCCN=[N+]=[N-])C(C(=O)NC2CCCCC2)c2ccccc2)c1` (stereo not shown) [17a -> 28a (over two steps from 2)], for which, in data set [3] (18-membered ring), the ring closure, yield over several steps stood at 18%.

For the molecule `C#CCN(CC(=O)OCCC(F)(F)C(F)(F)C(F)(F)C(F)(F)C(F)(F)C(F)(F)C(F)(F)C(F)(F)F)C(=O)c1cccc(N(C(=O)CCCCCCCN=[N+]=[N-])C(C(=O)NC2CCCCC2)c2ccccc2)c1` (stereo not shown) [17a -> 28b (over two steps from 2)], in data set [4] (17-membered ring, 48.0 h), the ring closure, yield over several steps was determined as 47%.

Consider `C#CCN(CC(=O)OCCC(F)(F)C(F)(F)C(F)(F)C(F)(F)C(F)(F)C(F)(F)C(F)(F)C(F)(F)F)C(=O)c1cccc(N(C(=O)CCCCCCCN=[N+]=[N-])C(C(=O)NC2CCCCC2)c2ccc(Br)cc2)c1` (stereo not shown) [17b -> 29a (over two steps from 2)], for which the ring closure, yield over several steps in data set [3] (18-membered ring) is 24%.

On to `C#CCN(CC(=O)OCCC(F)(F)C(F)(F)C(F)(F)C(F)(F)C(F)(F)C(F)(F)C(F)(F)C(F)(F)F)C(=O)c1cccc(N(C(=O)CCCCCCCN=[N+]=[N-])C(C(=O)NC2CCCCC2)c2ccc(Br)cc2)c1` (stereo not shown) [17b -> 29b (over two steps from 2)], for which, in data set [4] (17-membered ring), the ring closure, yield over several steps came out at 78%.

Turning to `CO[C@H]1C(=O)N2c3cccc(c3)C(=O)N(CC(=O)OCCC(F)(F)C(F)(F)C(F)(F)C(F)(F)C(F)(F)C(F)(F)C(F)(F)C(F)(F)F)Cc3cn(nn3)CCCCc3cccc(c3)[C@@H]12` [18a -> 30a (cis beta-lactam)], the ring closure, isolated yield in data set [1] (from C#CCN(CC(=O)OCCC(F)(F)C(F)(F)C(F)(F)C(F)(F)C(F)(F)C(F)(F)C(F)(F)C(F)(F)F)C(=O)c1cccc(N2C(=O)[C@H](OC)[C@@H]2c2cccc(CCCCN=[N+]=[N-])c2)c1, 18-membered ring, 24.0 h) amounted to 61%.

For `C#CCN(CC(=O)OCCC(F)(F)C(F)(F)C(F)(F)C(F)(F)C(F)(F)C(F)(F)C(F)(F)C(F)(F)F)C(=O)c1cccc(N2C(=O)[C@H](OC)[C@@H]2c2cccc(CCCCN=[N+]=[N-])c2)c1` [18a -> 30b (cis beta-lactam)], the ring closure, isolated yield in data set [2] (17-membered ring, 48.0 h) stood at 33%.

With `CO[C@H]1C(=O)N2c3cccc(c3)C(=O)N(CC(=O)OCCC(F)(F)C(F)(F)C(F)(F)C(F)(F)C(F)(F)C(F)(F)C(F)(F)C(F)(F)F)Cc3cn(nn3)CCCCc3cccc(c3)[C@H]12` [18b -> 31a (trans beta-lactam)], in data set [1] (from C#CCN(CC(=O)OCCC(F)(F)C(F)(F)C(F)(F)C(F)(F)C(F)(F)C(F)(F)C(F)(F)C(F)(F)F)C(=O)c1cccc(N2C(=O)[C@H](OC)[C@H]2c2cccc(CCCCN=[N+]=[N-])c2)c1, 18-membered ring, 24.0 h), the ring closure, isolated yield was 91%.

With `C#CCN(CC(=O)OCCC(F)(F)C(F)(F)C(F)(F)C(F)(F)C(F)(F)C(F)(F)C(F)(F)C(F)(F)F)C(=O)c1cccc(N2C(=O)[C@H](OC)[C@H]2c2cccc(CCCCN=[N+]=[N-])c2)c1` [18b -> 31b (trans beta-lactam)], the ring closure, isolated yield in data set [2] (17-membered ring, 96.0 h) was determined as 7%.

On to `O=C1C=CN2c3cccc(c3)C(=O)N(CC(=O)OCCC(F)(F)C(F)(F)C(F)(F)C(F)(F)C(F)(F)C(F)(F)C(F)(F)C(F)(F)F)Cc3cn(nn3)CCCCc3cccc(c3)C2C1` (stereo not shown) [19 -> 32a], for which the ring closure, isolated yield in data set [1] (from C#CCN(CC(=O)OCCC(F)(F)C(F)(F)C(F)(F)C(F)(F)C(F)(F)C(F)(F)C(F)(F)C(F)(F)F)C(=O)c1cccc(N2C=CC(=O)CC2c2cccc(CCCCN=[N+]=[N-])c2)c1, 18-membered ring, 20.0 h) worked out at 33%.

Regarding `C#CCN(CC(=O)OCCC(F)(F)C(F)(F)C(F)(F)C(F)(F)C(F)(F)C(F)(F)C(F)(F)C(F)(F)F)C(=O)c1cccc(N2C=CC(=O)CC2c2cccc(CCCCN=[N+]=[N-])c2)c1` (stereo not shown) [19 -> 32b], the ring closure, isolated yield in data set [2] (17-membered ring, 48.0 h) was 19%.

With `O=C(CN1Cc2cn(nn2)CCCCc2cccc(c2)[C@H]2[C@@H]3CC[C@H](CC3=O)N2c2cccc(c2)C1=O)OCCC(F)(F)C(F)(F)C(F)(F)C(F)(F)C(F)(F)C(F)(F)C(F)(F)C(F)(F)F` [20 -> 33 (exo azabicyclooctanone)], the ring closure, isolated yield in data set [1] (from C#CCN(CC(=O)OCCC(F)(F)C(F)(F)C(F)(F)C(F)(F)C(F)(F)C(F)(F)C(F)(F)C(F)(F)F)C(=O)c1cccc(N2[C@@H]3CC[C@H](C(=O)C3)[C@@H]2c2cccc(CCCCN=[N+]=[N-])c2)c1, 18-membered ring) is 65%.

Regarding `O=C(CN1Cc2cn(nn2)CCCCc2cccc(c2)[C@H]2Nc3cc(ccc3[C@H]3OCCC[C@@H]23)C1=O)OCCC(F)(F)C(F)(F)C(F)(F)C(F)(F)C(F)(F)C(F)(F)C(F)(F)C(F)(F)F` [21a -> 25a (calculated 0.012/0.021 mmol)], in data set [1] (from C#CCN(CC(=O)OCCC(F)(F)C(F)(F)C(F)(F)C(F)(F)C(F)(F)C(F)(F)C(F)(F)C(F)(F)F)C(=O)c1ccc2c(c1)N[C@H](c1cccc(CCCCN=[N+]=[N-])c1)[C@@H]1CCCO[C@H]21, 18-membered ring), the ring closure, isolated yield was 57%.

As to `C#CCN(CC(=O)OCCC(F)(F)C(F)(F)C(F)(F)C(F)(F)C(F)(F)C(F)(F)C(F)(F)C(F)(F)F)C(=O)c1ccc2c(c1)N[C@H](c1cccc(CCCCN=[N+]=[N-])c1)[C@H]1CCCO[C@@H]21` [21b -> 25b (from 21b/21c mixture, over two steps from 2)], the ring closure, yield over several steps in data set [3] (18-membered ring) was determined as 4%.

As for `C#CCN(CC(=O)OCCC(F)(F)C(F)(F)C(F)(F)C(F)(F)C(F)(F)C(F)(F)C(F)(F)C(F)(F)F)C(=O)c1cccc2c1[C@@H]1OCCC[C@@H]1[C@H](c1cccc(CCCCN=[N+]=[N-])c1)N2` [21c -> 25c (from 21b/21c mixture, over two steps from 2)], in data set [3] (18-membered ring), the ring closure, yield over several steps worked out at 7%.

Turning to `O=C(CN1Cc2cn(nn2)CCCCc2cccc(c2)[C@@H]2Nc3cccc(c3[C@H]3OCCC[C@H]32)C1=O)OCCC(F)(F)C(F)(F)C(F)(F)C(F)(F)C(F)(F)C(F)(F)C(F)(F)C(F)(F)F` [21d -> 25d (calculated 0.011/0.017 mmol)], in data set [1] (from C#CCN(CC(=O)OCCC(F)(F)C(F)(F)C(F)(F)C(F)(F)C(F)(F)C(F)(F)C(F)(F)C(F)(F)F)C(=O)c1cccc2c1[C@H]1OCCC[C@H]1[C@H](c1cccc(CCCCN=[N+]=[N-])c1)N2, 18-membered ring), the ring closure, isolated yield was found to be 65%.

Turning to `C#CCN(CC(=O)OCCC(F)(F)C(F)(F)C(F)(F)C(F)(F)C(F)(F)C(F)(F)C(F)(F)C(F)(F)F)C(=O)c1cccc(NC(C#N)c2cccc(CCCCN=[N+]=[N-])c2)c1` (stereo not shown) [22 -> 34 (over two steps from 2)], the ring closure, yield over several steps in data set [3] (18-membered ring) is 71%.
